Holding throughout (format): cell-based
For series [1], the system named is rat HEV replicon LA-B350/luc. The experiment in a line: antiviral activity against rat HEV replicon LA-B350/luc in Huh7 cells (Gaussia luciferase). As to conditions: Huh-7, 72 h, 3 days, 50% reduction in Luc signal, two experiments.
Series [2] is described as follows: viability evaluation (MTS/PMS) of replicon RNA-transfected Huh7 cells, Example 2. As to conditions: human, highest tested concentration 50 μM. From the text: Obtained values are expressed as percent inhibition of untreated RNA-transfected control condition.
Series [3] relates to HEV Genotype 3 replicon Kernow-C1 p6/luc. The experiment in a line: antiviral activity against HEV Genotype 3 replicon Kernow-C1 p6/luc in Huh7 cells (Gaussia luciferase). As to conditions: Huh-7, 96 h, 4 days, 4PL model, two experiments, read-out: relative EC50.
Series [4] is described as follows: viability evaluation (MTS/PMS) of Kernow-C1 p6/luc RNA-transfected Huh7 cells, Example 3. As to conditions: human, highest tested concentration 50 μM, read-out: relative CC50.
Experimental: For viability evaluation, medium was removed and cells were subsequently incubated with MTS/PMS solution (3-(4,5-dimethylthiazol-2-yl)-5-(3-carboxymethoxyphenyl)-2-(4-sulfophenyl)-2H-tetrazolium/phenazinemethosulfate), which is metabolized to produce a brown, water-soluble product that is quantified after 1 h at 37° C. by absorbance read-out at 498 nm. Obtained values are expressed as percentage of untreated RNA-transfected control condition.

Structures are written as SMILES.

With `CCOc1nc(N)nc2c1ncn2[C@@H]1O[C@](F)(CO[P@](=O)(N[C@@H](C)C(=O)OC2CCCCC2)Oc2ccccc2)[C@@H](O)[C@@]1(C)F` [Compound 1], the EC50 is less than 0.00064 µM in series [1] and 0.013 µM in series [3]. Further, the CC50 in series [2] was greater than 50 µM; in series [4] it was no more than 50 µM.

On to `CCOc1nc(N)nc2c1ncn2[C@@H]1O[C@](F)(COP(=O)(N[C@@H](C)C(=O)OC2CCCCC2)Oc2ccccc2)[C@@H](O)[C@@]1(C)O` (stereo partly drawn) [Compound 2], for which the figures for the EC50 in series [1] and in series [3] were 0.0089 µM and 0.011 µM, respectively.

Consider `CCOc1nc(N)nc2c1ncn2[C@@H]1O[C@](F)(COP(=O)(OCOC(=O)OC(C)C)OCOC(=O)OC(C)C)[C@@H](O)[C@@]1(C)F` [Compound 3], for which the EC50 in series [1] was 0.0099 µM; in series [3], 0.012 µM.

Turning to `CCOc1nc(N)nc2c1ncn2[C@@H]1O[C@](F)(COP(=O)(N[C@@H](C)C(=O)OC(C)C)Oc2ccccc2)[C@@H](O)[C@@]1(C)F` (stereo partly drawn) [Compound 4], the EC50 is 0.036 µM in series [1] and 0.0065 µM in series [3]. The CC50 in series [2] was greater than 50 µM.

For `CCOc1nc(N)nc2c1ncn2[C@@H]1O[C@](F)(COP(=O)(OCOC(=O)OC(C)C)OCOC(=O)OC(C)C)[C@@H](O)[C@@]1(C)O` [Compound 6], the EC50 in series [1] is 0.023 µM; in series [3], 0.026 µM.

With `CC(C)OC(=O)[C@H](C)N[P@](=O)(OC[C@@]1(F)O[C@@H](n2ccc(=O)[nH]c2=O)[C@](C)(O)[C@@H]1O)Oc1ccccc1` [Compound 7], the EC50 was 0.11 µM in series [1] and 0.042 µM in series [3].

`CCOc1nc(N)nc2c1ncn2[C@@H]1O[C@]2(F)CO[P@@](=O)(N[C@H](C)C(=O)OC(C)C)O[C@H]2[C@@]1(C)F` [Compound 8]: the EC50 amounted to 0.86 µM in series [1] and 0.22 µM in series [3].

With `CC(C)OC(=O)OCOP(=O)(OCOC(=O)OC(C)C)OC[C@@]1(F)O[C@@H](n2ccc(=O)[nH]c2=O)[C@](C)(O)[C@@H]1O` [Compound 9], the EC50 in series [1] was 4.8 µM; in series [3], greater than 50 µM.

For `C=CCOP1(=O)OC[C@@]2(F)O[C@@H](n3cnc4c(OCC)nc(N)nc43)[C@](C)(F)[C@@H]2O1` (stereo partly drawn) [Compound 10], the EC50 came to 5.7 µM in series [1] and 1.3 µM in series [3]. The same compound registered a CC50 in series [2] greater than 50 µM.

For `CC(C)OC(=O)OCOP(=O)(OCOC(=O)OC(C)C)OC[C@@]1(F)O[C@@H](n2ccc(=O)[nH]c2=O)[C@](C)(F)[C@@H]1O` [Compound 11], the results for the EC50 in series [1] and in series [3] were 7.3 µM and 0.72 µM, respectively.

Values taken from patent US12708641B2 (priority 2020, dated 2026).
